Reference: patent US20170260519A1, “METHOD OF CULTIVATING MICROORGANISMS HAVING NITRILE HYDRATASE ACTIVITY” (priority 2014, published 2017)

Legend:
[1] = test system: R. rhodochrous “CIBA” (NCIMB 41164); test: Relative nitrile hydratase activity after cultivation of R. rhodochrous "CIBA" with different carbon sources; assay type: cell-based, Rhodococcus rhodochrous; settings: 10 g/l, 64 h
Description: In context with the present invention, activity of an nitrile hydratase in the sense of the present invention can be determined as follows: First reacting 100 μl of a cell suspension, cell lysate, dissolved enzyme powder or any other preparation containing the supposed nitrile hydratase with 875 μl of an 50 mM potassium phosphate buffer and 25 μl of acrylonitrile at 25° C. on an eppendorf tube shaker at 1,000 rpm for 10 minutes. After 10 minutes of reaction time, samples are drawn and immediately quenched by adding the same volume of 1.4% hydrochloric acid. After mixing of the sample, cells are removed by centrifugation for 1 minute at 10,000 rpm and the amount of acrylamide formed is determined by analyzing the clear supernatant by HPLC. The concentration of acrylamide shall be between 0.25 and 1.25 mmol/l—if necessary, the sample has to be diluted accordingly and the conversion has to be repeated. The enzyme activity is deduced from the concentration of acrylamide by dividing the acrylamide concentration derived from HPLC analysis by the reaction time, which has been 10 minutes and by multiplying this value with the dilution factor between HPLC sample and original sample. […]) and/or to the nucleotide sequence of SEQ ID NO: 3 (beta-subunit of nitrile hydratase of R. rhodochrous: […]), provided that the polypeptide encoded by said polynucleotide is capable of catalyzing hydration of acrylonitrile to acrylamide (i.e. has nitrile hydratase activity) as described and exemplified herein. […] VIV) and/or to the amino acid sequence of SEQ ID NO: 4 (beta-subunit of nitrile hydratase of R. rhodochrous: […]), provided that said polypeptide is capable of catalyzing hydration of acrylonitrile to acrylamide as described and exemplified herein.
Different sugar/organic acid ratios were evaluated for different strains of Rhodococcus (R. rhodochrous “CIBA” (NCIMB 41164) and R. rhodochrous “J1” (FERM BP-1478)), in a microfermentation system.
The basic cultivation medium contained yeast extract (Biospringer) (1.25 g/l), KH2PO4 (10 g/l), K2HPO4 (10 g/l), (NH4)2SO4 (1 g/l), MgSO4*7H2O (0.375 g/l), CaCl2*2H2O (25 mg/l), Trace element solution (2.5 g/l) (see below), Co(NO3)2 (31.2 mg/l), anti-foam P2000 (BASF) (62.5 mg/l), urea (7 g/l), and ammonium glutamate (2.5 g/l) in H2O.
Trace Element Solution: Citric acid mono hydrate (40 g/l), ZnSO4*7H2O (11 g/l), (NH4)2Fe(SO4)2*6H2O (8.5 g/l), MnSO4*H2O (3 g/l), and CuSO4*5H2O (0.8 g/l) in H2O.
The medium was then supplemented with 10 g/l of carbon source (saccharide, organic acid or mixture of both as indicated in the Tables below). pH was adjusted to 6.6 using H3PO4 or NaOH. The medium was inoculated directly from cryo stocks to OD 0.05 (measured at 600 nm). Cultivation was carried out at 37° C. for 64 h at 1,100 rpm in a BioLector micro fermentation system (M2P Labs, Baesweiler, Germany) using 48-well flower plates with a working volume of 1.5 ml. After cultivation, samples were drawn, quenched with hydrochloric acid and nitrile hydratase activity was determined as described in Example 2.
Nitrile hydratase activities achieved with the saccharide as sole carbon source were set to 100%.

[2] = test system: R. rhodochrous “J1” (FERM BP-1478); test: Relative nitrile hydratase activity after cultivation of R. rhodochrous "J1" with different carbon sources; assay type: cell-based, Rhodococcus rhodochrous; settings: 10 g/l, 64 h
Description: In context with the present invention, activity of an nitrile hydratase in the sense of the present invention can be determined as follows: First reacting 100 μl of a cell suspension, cell lysate, dissolved enzyme powder or any other preparation containing the supposed nitrile hydratase with 875 μl of an 50 mM potassium phosphate buffer and 25 μl of acrylonitrile at 25° C. on an eppendorf tube shaker at 1,000 rpm for 10 minutes. After 10 minutes of reaction time, samples are drawn and immediately quenched by adding the same volume of 1.4% hydrochloric acid. After mixing of the sample, cells are removed by centrifugation for 1 minute at 10,000 rpm and the amount of acrylamide formed is determined by analyzing the clear supernatant by HPLC. The concentration of acrylamide shall be between 0.25 and 1.25 mmol/l—if necessary, the sample has to be diluted accordingly and the conversion has to be repeated. The enzyme activity is deduced from the concentration of acrylamide by dividing the acrylamide concentration derived from HPLC analysis by the reaction time, which has been 10 minutes and by multiplying this value with the dilution factor between HPLC sample and original sample. […]
Different sugar/organic acid ratios were evaluated for different strains of Rhodococcus (R. rhodochrous “CIBA” (NCIMB 41164) and R. rhodochrous “J1” (FERM BP-1478)), in a microfermentation system. […]
The medium was then supplemented with 10 g/l of carbon source (saccharide, organic acid or mixture of both as indicated in the Tables below). pH was adjusted to 6.6 using H3PO4 or NaOH. The medium was inoculated directly from cryo stocks to OD 0.05 (measured at 600 nm). […] After cultivation, samples were drawn, quenched with hydrochloric acid and nitrile hydratase activity was determined as described in Example 2. […]

[3] = Only acid as carbon source, 37° C., fructose as sole carbon source = 100%
[4] = Only acid as carbon source, 37° C., glucose as sole carbon source = 100%
[5] = Only acid as carbon source, 37° C., mannose as sole carbon source = 100%
[6] = Only acid as carbon source, 37° C., ribose as sole carbon source = 100%
[7] = Only saccharide as carbon source, set to 100%

SMILES	relative nitrile hydratase activity [1, 3] [%]	relative nitrile hydratase activity [1, 4] [%]	relative nitrile hydratase activity [1, 5] [%]	relative nitrile hydratase activity [1, 6] [%]	relative nitrile hydratase activity [1, 7] [%]	relative nitrile hydratase activity [2, 7] [%]	relative nitrile hydratase activity [2, 3] [%]	relative nitrile hydratase activity [2, 4] [%]
O=C(O)CCC(=O)O [Succinic, succinic acid]	30	150	1204	1291	–	–	–	–
O=C(O)CC(O)(CC(=O)O)C(=O)O [Citric, citric acid]	32	164	1315	1409	–	–	–	–
O=C(CO)[C@@H](O)[C@H](O)[C@H](O)CO [Fructose, fructose]	–	–	–	–	100	100	–	–
O=C[C@H](O)[C@H](O)[C@H](O)CO [Ribose, ribose]	–	–	–	–	100	–	–	–
O=C(O)C(O)C(O)C(=O)O (stereo not drawn) [Tartaric, tartaric acid]	34	173	1388	1487	–	–	–	–
CC(O)C(=O)O (stereo not drawn) [Lactic, lactic acid]	–	–	–	–	–	–	73	1963
O=C(O)CC(O)C(=O)O (stereo not drawn) [Malic, malic acid]	39	197	1579	1693	–	–	–	–
